Here are results for ten molecules from patent publication US11873486B2, “Modulating dsRNA editing, sensing, and metabolism to increase tumor immunity and improve the efficacy of cancer immunotherapy and/or modulators of intratumoral interferon” (Dana-Farber Cancer Institute, Inc., priority 2017, dated 2024).

“Also recorded” adds a separate entry of the source.

One test addresses T1, ADA2 (Homo sapiens, UniProt Q9NZK5).
T1 sequence (Q9NZK5 30-511): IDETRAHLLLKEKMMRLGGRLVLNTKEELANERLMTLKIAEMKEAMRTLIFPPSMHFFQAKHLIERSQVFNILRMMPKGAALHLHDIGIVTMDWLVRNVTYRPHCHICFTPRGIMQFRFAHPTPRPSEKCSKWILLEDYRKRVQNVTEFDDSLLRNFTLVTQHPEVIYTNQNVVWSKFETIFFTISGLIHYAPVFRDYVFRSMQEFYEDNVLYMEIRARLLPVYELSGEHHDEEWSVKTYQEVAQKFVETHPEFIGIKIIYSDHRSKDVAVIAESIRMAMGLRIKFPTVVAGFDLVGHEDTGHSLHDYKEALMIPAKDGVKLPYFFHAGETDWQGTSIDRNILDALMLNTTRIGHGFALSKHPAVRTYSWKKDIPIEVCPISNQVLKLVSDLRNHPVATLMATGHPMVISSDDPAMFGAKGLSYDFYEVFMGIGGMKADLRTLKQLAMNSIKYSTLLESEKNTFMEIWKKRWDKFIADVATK
To be noted: cited from earlier work.

For test [1], the system named is interferon stimulated genes in ADAR-dependent cell lines. In words: Immunoblot of interferon stimulated gene expression after inhibitor treatment. The class given is cell-based, human. Particulars: for ISG expression / interferon signaling: antioxidant treatment of ADAR-dependent cell lines. As to the method:
(§1) For drug treatment assays, cells were plated at a density of 3000 cells per well in a 96-well assay plate. The following day, cells were treated with ruxolitinib (INCB018424) from Selleck Chemicals; MRT67307 hydrocloride (SML0702) from Sigma-Aldrich; human interferon-alphal (#8927) from Cell Signaling; recombinant human IFN-beta 1a (mammalian) protein (114151) and recombinant human IFN-gamma protein (285-IF-100) from R&D Systems. For preincubation drug treatment experiments, cells were plated in the presence of ruxolitinib and were treated with interferon-0 and ruxolitinib the following day. Control wells were treated with dimethylsulfoxide (DMSO). Cell viability was assayed 3 or 6 days after drug treatment with CellTiter-Glo® Luminescent Cell Viability Assay kit (Promega). Viability was normalized to DMSO controls.
Cells were lysed in RIPA lysis buffer (Thermo Scientific) supplemented with 1× protease and phosphatase inhibitor cocktails (Roche). Protein extracts were analyzed by standard immunoblotting with the following antibodies: ADAR1 (D7E2M), MDA5 (D74E4), RIG-I (D14G6), ISG15 (22D2), USP18 (D4E7), PKR (#3072), STING (D2P2F), cGAS (D1D3G), IRF9 (D2T8M), PD-L1 (E1L3N), P-IRF3 Ser396 (4D4G), IRF3 (D6I4C), P-TBK1 Ser172 (D52C2), TBK1 (D1B4), P-EIF2α Ser51 (#9721), and EIF2α (D7D3) from Cell Signaling; P-PKR Thr446 (ab32036) from Abcam; R-actin C4 (sc-47778) from Santa Cruz. All antibodies were used at a dilution of 1:1000 except R-actin which was used at 1:4000). The following secondary antibodies were used at 1:5000 dilution: Goat anti-Rabbit IRDye 800CW (LI-COR, 926-32211) and Goat anti-Mouse IRDye […] (LI-COR, 926-68020). All immunoblots were imaged using the LI-COR digital imaging system and ImageJ.

Test [2] has as its system ADAR1 knockout A549 cells. In words: Viability of ADAR1 knockout A549 cells with interferon or drug treatment. The class given is cell-based, human. As to the method:
as §1
for interferon treatment assays, cells were plated at a low density of 3000 cells per well in a 96-well assay plate. The following day, cells were treated with human interferon-alpha 1 (Cell Signaling, #8927) or recombinant human IFN-beta 1a (mammalian) protein (PBL Assay Science, 114151). Control wells were treated with water. Cell viability was assayed 3 or 6 days after drug treatment with CellTiter-Glo© Luminescent Cell Viability Assay kit (Promega). Viability was normalized to controls. Apoptosis was assayed 3 days after interferon treatment with Caspase-Glo®3/7 Assay kit (Promega). Dose curves were obtained using least-squares nonlinear regression on a standard four-parameter logistic model using GraphPad Prism.

The subject of the next test is B16 tumors. In words: B16 tumor challenge (tumor volume, survival). It is filed as in vivo, mouse. To be noted: topical, every three days. The text has this:
The designs of these animal studies and procedures were approved by the Dana Farber Cancer Institute IACUC committee. Dana Farber's specific-pathogen free facility was used for the storage and care of all mice. Seven-week old wild-type female C57BL/6J mice were obtained from Jackson laboratories (Bar Harbor, ME). A colony of B6.129S2-Tcra^tm1Mom/J (Tcra) T cell-deficient mice were bred on site. Mice were aged matched to be 7-12 weeks old at the time of tumor inoculation. For screening, 2.0×10^6 library-transduced B16-Cas9 cells resuspended in Hanks Balanced Salt Solution (Gibco, Thermo Fisher Scientific, Waltham, MA) were mixed 1:1 by volume with Matrigel® (Corning, Corning, NY) and subcutaneously injected into the right flank on day 0. Mice were vaccinated with 1.0×10^6 GM-CSF-secreting B16 (GVAX) cells that had been irradiated with […] on days 1 and 4 to elicit an anti-tumor immune response. Subsequently, mice were treated with 100 μg of rat monoclonal anti-PD1 antibody (clone: 29F.1A12) on days 9 and 12 via intraperitoneal injection. For validation assays, 1.0×10^6 tumor cells were subcutaneously injected into the right flank without matrigel. Tumors were measured every 3 days beginning on day 6 after challenge until time of death. Measurements were taken manually by collecting the longest dimension (length) and the longest perpendicular dimension (width). Tumor volume was estimated with the formula: (L×W^2)/2. CO2 inhalation was used to euthanize mice on the day of sacrifice.
The designs of animal studies and procedures were approved by the Dana Farber Cancer Institute IACUC and the Broad Institute IACUC committees. Specific pathogen-free facilities at the Dana Farber and the Broad Institute were used for the storage and care of all mice. Six-week old wild-type female C57BL/6J mice were obtained from Jackson laboratories, Bar Harbor ME A colony of B6.129S2-Tcra^tm1Mom/J (Tcra) T cell-deficient mice were bred on site at the Dana Farber. […] Tumors were measured every 3 days beginning on day 6 after challenge until time of death. […]

The target of the next test is T2, ADA1 (Homo sapiens, UniProt P00813).
T2 sequence (P00813 1-363): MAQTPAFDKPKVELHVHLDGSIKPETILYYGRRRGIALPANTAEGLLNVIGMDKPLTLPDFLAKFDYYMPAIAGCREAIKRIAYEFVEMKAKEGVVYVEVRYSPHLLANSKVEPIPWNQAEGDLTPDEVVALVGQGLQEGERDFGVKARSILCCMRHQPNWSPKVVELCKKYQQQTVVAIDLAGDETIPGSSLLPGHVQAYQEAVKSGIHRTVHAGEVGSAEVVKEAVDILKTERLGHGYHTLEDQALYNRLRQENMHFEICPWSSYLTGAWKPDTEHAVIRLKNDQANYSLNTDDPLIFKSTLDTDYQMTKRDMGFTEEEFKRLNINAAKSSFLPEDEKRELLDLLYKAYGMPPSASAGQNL
Particulars: cited from earlier work.

The test system of a further test is B16 tumor cells. In words: In vitro cytokine stimulation and growth inhibition assay. The class given is cell-based, mouse. To be noted: Adar-deficient versus control B16 tumor cells, 72 hours. As to the method:
FIG. 9 includes 3 panels, identified as panels A, B, and C, which provide exemplary mechanisms of ADAR-induced sensitivity to checkpoint blockade. […] A certain number of B16 tumor cells (50 k; Adar null or control) were stimulated in vitro with cytokine for 72 hours and the cell numbers were then counted. […] A certain number of B16 tumor cells (50 k; Adar null or control) were stimulated with cytokine in vitro, washed to remove cytokine (for IFNβ), and evaluated via IFNβ ELISA. […] A certain number of B16 tumor cells (50 k; Adar null or control) were stimulated in vitro with cytokine for 72 hours and stained for Class I MHC and PD-L1.
Tumor cells were engineered as noted above and plated in DMEM+10% FBS containing the indicated combinations of cytokines: IFN (1,000 U/ml, PBL), IFN (100 ng/ml, Cell Signaling Technologies), TNF (10 ng/ml, PreproTech). For rescue/re-expression experiments, 10,000 cells were plated in 96-well plates and viable cells were enumerated after 72 hours using Cell Titer-Glo® (Promega, G7570). For all other growth inhibition assays, 50,000 cells were plated in 12-well plates and viable cells were counted after 72 hours using the Countess automated cell counting system (Thermo Fisher Scientific, C10227).

Where [3] appears, read: animals bearing Adar1 null B16 tumors.

On to `Nc1ccnc2c1ncn2[C@@H]1O[C@H](CO)[C@@H](O)[C@H]1O` [1-deazaadenosine], for which the “inhibition of ADA2” value at ADA2 is “can inhibit both ADA1 and ADA2”. As to `c1ccc2c(c1)[I+]c1ccccc1-2` [DPI, diphenylene iodonium], the “ISG expression / interferon signaling” value in test [1] is “partially decreased ISG expression”; in test [1] (listed as diphenylene iodonium (DPI)) it was “partially alleviates interferon signaling”. On to `Cl.O=C(NCCCNc1nc(Nc2cccc(CN3CCOCC3)c2)ncc1C1CC1)C1CCC1` [MRT67307, MRT67307 hydrocloride], for which the ISG expression entry in test [1] (TBK1 inhibitor treatment) is given as “reduced”. With `COc1cccc2c1C(=O)c1c(O)c3c(c(O)c1C2=O)C[C@@](O)(C(=O)CO)C[C@@H]3O[C@H]1C[C@H](N)[C@H](O)[C@H](C)O1` [doxorubicin], the “sensitization to ADAR1 knockout” value in test [2] is “failed to sensitize A549 cells to ADAR1 knockout”. In the case of `CC(C)Cn1cnc2c(N)nc3ccccc3c21` [imiquimod], in the test with B16 tumors (setting [3]), the survival entry was “enhanced survival” and the tumor growth entry is “significantly slowed tumor growth”. In addition, the survival entry in the test on B16 tumors (animals bearing control B16 tumors) was “nor topical therapy with imiquimod, a TLR7 agonist, increased the survival”. With `C[C@@H]1O[C@@H](O[C@H]2[C@H](Oc3cc(O)c4c(c3)O[C@H](c3ccc(O)cc3)CC4=O)O[C@H](CO)[C@@H](O)[C@@H]2O)[C@H](O)[C@H](O)[C@H]1O` [naringin], the “inhibition of ADA1” value at ADA1 was “potent ADA1 inhibitor”.

Regarding `OC[C@H]1O[C@@H](n2cnc3c2NC=NC[C@H]3O)C[C@@H]1O` [pentostatin], at ADA2, the “inhibition of ADA2” value is “can inhibit both ADA1 and ADA2”. With IFNγ, the cytokine-induced growth arrest result in the test with B16 tumor cells was “increases IFNβ and IFNγ-induced growth arrest; also recorded: increases susceptibility to IFNβ and IFNγ”. For “Type II interferon: recombinant human IFN-gamma protein (R&D Systems)”, in test [2], the “sensitization to ADAR1 knockout” value is on record as “did not sensitize A549 cells to ADAR1 knockout”. For “erythro-9-(2-hydroxy-3-nonyl)adenine [EHNA]”, on ADA1, the “inhibition of ADA1” value is “specifically inhibits ADA1”.
